The values that follow come from ChEMBL document CHEMBL1201862, “PubChem BioAssay data set” (2004).

Some test systems named below: K562; HCT-116; MDA-MB-231; U-251; UO-31; RPMI-8226; SK-MEL-5; LOX IMVI; UACC-62; OVCAR-8; OVCAR-4; SNB-75; M14; A498; CCRF-CEM; SK-MEL-2; MDA-MB-435; SNB-19; SR; SN12C.
What all share (experiment): NCI-60 cell line screen, 48 h

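Protocol summary: plate cells (96-well), add compound at 5 concentrations, incubate 48 h, interpolate endpoints linearly. GI50 = concentration required for 50% inhibition of growth.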 Activity calls are given as the source filed them. Rule as the data show it: active = GI50 up to about 1.1 µM and inactive = higher. Positions of bridges follow the written chain, without caps; N, C: chain ends. Non-standard residues stand in square brackets, D forms with d. Residues, ends and D or L forms follow the SMILES beside them. Aib = CC(C)(N)C(=O)O; βAla = NCCC(=O)O

Turning to `CC1(C)NC(=O)C(NC(=O)C(N)CC(=O)O)CCCCNC(=O)CCNC1=O` (configuration not stated) (H-DK[Aib][βAla]; lactam 2-C; configuration not given here), the GI50 in the test with K562, with HCT-116, in the test with MDA-MB-231, with U-251, in the test with UO-31 and with RPMI-8226 was > 100 µM (inactive) each time. Besides, the GI50 with SK-MEL-5, in the test on LOX IMVI, in the test on UACC-62, with OVCAR-8, with OVCAR-4 and in the test on SNB-75 was > 100 µM (inactive) each time. The GI50 in the test on M14, with A498, in the test with CCRF-CEM, in the test with SK-MEL-2, in the test on MDA-MB-435 and with SNB-19 was > 100 µM (inactive) each time.
On to `CC(=O)C1=C(O)C(N)C2Cc3c(c(O)c4c(O)c(C)ccc4c3C)C(=O)C2(O)C1=O` (configuration not stated), for which the GI50 in the test with K562 is 1.87 µM (inactive); in the test with HCT-116, 1.28 µM (inactive); with U-251, 0.885 µM (active); in the test with UO-31 it was 3.18 µM (inactive); in the test on RPMI-8226, 1.27 µM (inactive); in the test with SR, 1.64 µM (inactive). Moreover, the GI50 in the test on SK-MEL-5 is 1.19 µM (inactive); with LOX IMVI, 0.973 µM (active); with UACC-62 it was 1.25 µM (inactive); in the test on OVCAR-8 it was 1.39 µM (inactive); in the test with OVCAR-4, 5.61 µM (inactive); in the test on SNB-75, 3.11 µM (inactive). Moreover, the GI50 in the test with M14 was 2.47 µM (inactive); in the test with A498, 2.8 µM (inactive); in the test on SN12C, 1.37 µM (inactive); with CCRF-CEM, 3.24 µM (inactive); in the test with SK-MEL-2, 3.56 µM (inactive); in the test with SNB-19, 2.34 µM (inactive).
On to `O=S(=O)(O)c1ccc([Se][Se]c2ccc(S(=O)(=O)O)cc2)cc1`, for which the GI50 was > 100 µM (inactive) in the test with K562; > 100 µM (inactive) in the test with HCT-116; > 100 µM (inactive) with U-251; > 100 µM (inactive) in the test on UO-31; 72.4 µM (inactive) with RPMI-8226; 27.9 µM (inactive) in the test with SR. The GI50 with SK-MEL-5, in the test with LOX IMVI, in the test with UACC-62, with OVCAR-8, in the test on OVCAR-4 and in the test with SNB-75 was > 100 µM (inactive) throughout. Also, the GI50 in the test on M14, in the test with A498, in the test with SN12C, in the test on CCRF-CEM, in the test on SK-MEL-2 and in the test on SNB-19 was > 100 µM (inactive) throughout.
For the compound `CCCc1cc(COC)c(C#N)c(O)n1`, the GI50 in the test with K562, in the test on HCT-116, in the test on MDA-MB-231, in the test with U-251, with UO-31 and in the test on RPMI-8226 was > 100 µM (inactive) throughout. The GI50 in the test with SK-MEL-5, in the test with LOX IMVI, in the test on UACC-62, in the test with OVCAR-8, with OVCAR-4 and in the test on M14 was > 100 µM (inactive) each time. Besides, the GI50 in the test with A498, in the test with SN12C, in the test with CCRF-CEM, in the test with MDA-MB-435 and with SNB-19 was > 100 µM (inactive) each time.
Turning to `CCOC(=O)/C=C1\Nc2ccccc2-n2nnnc21`, the GI50 in the test with K562 is > 100 µM (inactive); in the test with HCT-116, > 100 µM (inactive); with U-251, 22.1 µM (inactive); in the test with UO-31 it was > 100 µM (inactive); in the test on RPMI-8226, 64.9 µM (inactive); in the test on SR, > 100 µM (inactive). Also, the GI50 in the test on SK-MEL-5, in the test on LOX IMVI, in the test with UACC-62, in the test on OVCAR-8, with OVCAR-4 and in the test on SNB-75 was > 100 µM (inactive) each time. Moreover, the GI50 in the test on M14, with A498, in the test on SN12C, in the test on CCRF-CEM, in the test on SK-MEL-2 and in the test on SNB-19 was > 100 µM (inactive) each time.
As to `COC(=O)C1=CC(O)CCC1c1ccc(OC)cc1` (configuration not stated), the GI50 in the test with K562, in the test with HCT-116, in the test on U-251, in the test on UO-31, in the test with RPMI-8226 and with SR was > 100 µM (inactive) in each case. In addition, the GI50 in the test on SK-MEL-5, in the test on LOX IMVI, with UACC-62, in the test on OVCAR-8, with OVCAR-4 and with SNB-75 was > 100 µM (inactive) each time. Moreover, the GI50 with M14, in the test on A498, in the test on SN12C, with CCRF-CEM, in the test on SK-MEL-2 and in the test with SNB-19 was > 100 µM (inactive) throughout.
As to `COc1ccc2nc(-c3ccc(O)cc3)cc(O)c2c1`, the GI50 with K562 is 0.598 µM (active); with HCT-116 it was 0.977 µM (active); in the test with MDA-MB-231, 22.6 µM (inactive); with U-251 it was 0.718 µM (active); in the test on UO-31 it was 3.14 µM (inactive); in the test with RPMI-8226 it was 1.65 µM (inactive). The GI50 in the test on SK-MEL-5 is 0.714 µM (active); in the test with LOX IMVI, 1.58 µM (inactive); in the test on UACC-62, 0.697 µM (active); in the test with OVCAR-8, 2.28 µM (inactive); with OVCAR-4, 5.12 µM (inactive); in the test on SNB-75 it was 0.434 µM (active). In addition, the GI50 with M14 is 0.857 µM (active); with A498 it was 0.269 µM (active); in the test on SN12C, 2.78 µM (inactive); in the test with CCRF-CEM, 1.09 µM (active); in the test with SK-MEL-2 it was 0.679 µM (active); in the test on SNB-19 it was 3.75 µM (inactive).
Take `Cc1nnc(N)nc1/C=C\c1ccc(N(C)C)cc1`: the GI50 in the test with K562 was 86.9 µM (inactive); in the test with HCT-116 it was 10.8 µM (inactive); in the test with U-251 it was > 27.1 µM (inactive); with UO-31 it was 3.18 µM (inactive); with RPMI-8226 it was 9.86 µM (inactive); with SR it was 6.24 µM (inactive). For the same compound, the GI50 with SK-MEL-5 was 18.5 µM (inactive); in the test with LOX IMVI, 4.88 µM (inactive); with UACC-62, 4.27 µM (inactive); with OVCAR-8, 22.9 µM (inactive); in the test on OVCAR-4, 26.5 µM (inactive); in the test with SNB-75, 2.67 µM (inactive). Besides, the GI50 in the test with M14 was 27 µM (inactive); in the test on A498, 16.6 µM (inactive); in the test with SN12C it was > 100 µM (inactive); in the test on CCRF-CEM, 10.3 µM (inactive); in the test with SK-MEL-2 it was 39.8 µM (inactive); in the test with MDA-MB-435, 6.27 µM (inactive). The GI50 in the test on SNB-19 was 15.2 µM (inactive).
Turning to `Cc1ccc(S(=O)(=O)N2CCSCCSCCSCCN(S(=O)(=O)c3ccc(C)cc3)CC2)cc1`, the GI50 in the test with K562, in the test on HCT-116, with MDA-MB-231, with U-251, in the test on UO-31 and in the test with RPMI-8226 was > 100 µM (inactive) throughout. In addition, the GI50 is > 100 µM (inactive) with SK-MEL-5; > 100 µM (inactive) with UACC-62; > 100 µM (inactive) in the test on OVCAR-8; > 100 µM (inactive) in the test with OVCAR-4; 61 µM (inactive) in the test with SNB-75; > 100 µM (inactive) with M14. The GI50 in the test with A498, in the test on SN12C, in the test on SK-MEL-2, in the test with MDA-MB-435 and in the test on SNB-19 was > 100 µM (inactive) in each case.
For `CS/C(=N\C#N)NC1CC(n2cc(C)c(=O)[nH]c2=O)OC1CO` (configuration not stated), the GI50 in the test on K562, with HCT-116, in the test with MDA-MB-231, with U-251, in the test with UO-31 and in the test with SK-MEL-5 was > 100 µM (inactive) in each case. In addition, the GI50 with LOX IMVI, with UACC-62, in the test with OVCAR-8, in the test with OVCAR-4, with SNB-75 and in the test with M14 was > 100 µM (inactive) in each case. Besides, the GI50 in the test on A498, with SN12C, in the test on CCRF-CEM, with SK-MEL-2, in the test with MDA-MB-435 and with SNB-19 was > 100 µM (inactive) each time.
In the case of `N#CCCN(CCC#N)C(=O)c1cccc(C(=O)N(CCC#N)CCC#N)c1`, the GI50 is > 100 µM (inactive) with K562; > 55.6 µM (inactive) in the test with HCT-116; > 45.8 µM (inactive) in the test on U-251; > 100 µM (inactive) in the test on UO-31; > 50.4 µM (inactive) in the test with RPMI-8226; > 44.2 µM (inactive) in the test with SR. The GI50 in the test on SK-MEL-5 is > 56.5 µM (inactive); in the test on LOX IMVI it was 16.4 µM (inactive); in the test on UACC-62 it was > 37.3 µM (inactive); in the test on OVCAR-8, > 50 µM (inactive); in the test with OVCAR-4, > 100 µM (inactive); in the test on SNB-75, > 44.6 µM (inactive). Besides, the GI50 is > 69 µM (inactive) with M14; > 100 µM (inactive) with A498; > 43.7 µM (inactive) in the test with SN12C; > 100 µM (inactive) in the test with CCRF-CEM; > 100 µM (inactive) with SK-MEL-2; > 61 µM (inactive) in the test on SNB-19.
